Reference: US6747062B2, “Regulation of wound healing by nitric oxide” (New York Society for the Ruptured and Crippled Maintaining …, priority 1994, dated 2004)

Legend:
[1] = Other systemic effects and post mortem examination; format: in vivo, rat; conditions: for systemic changes (palsies, coat, dyspnoea, death, post mortem lesions): 3 weeks feeding
Protocol: (§1) Rat model system: The rat achilles tendon model is used to test model compounds for biological activity i.e. the ability to promote or inhibit wound healing in vivo. As described in Example 1 below, one Achilles tendon in each rat is transsected surgically, and allowed to heal for periods ranging from 6 hours to 14 days. At each time point, the degree of healing is first assessed by measuring walking speed. The animals are then sacrificed and the tendons are excised and subjected to biomechanical testing and morphological and immunochemical analysis. NOS activity is measured in the excised tendons as above. Finally, body and muscle weight are monitored, and systemic and local toxicity are assessed by macroscopic and microscopic post-mortem examination. It will be understood by a skilled practitioner that any small mammal suitable for testing may be used, including rats, mice, rabbits, guinea pigs, and the like.
(§2) In the following NOS inhibition experiments, animals were fed the indicated chemicals at 1 mg/ml in their drinking water ad libitum for four days prior to surgical division of the right Achilles tendon and throughout the post-operative experimental period, with the exception of experiment (c)*, where the drugs were given from the immediate post-operative period:
(§3) (d) 3 weeks D-NAME (n=8), L-NAME (n=8), L-arginine (n=8), walking speed assessments at days 1,4,8,11,15,18,22, biomechanical assessment, muscle weight and autopsy at day 22.

[2] = Body and muscle weight of rats fed the chemicals; format: in vivo, rat; conditions: for increase of weight: over 22 days, same dose
Protocol: as §2, §3
All animals were weighed prior to surgery, at weekly intervals, and at sacrifice. After sacrifice the right triceps of rats fed D-NAME (n=8), L-NAME (n=8) or L-arginine (n=8) for three weeks was harvested, weighed for wet weight, lyophilized for dry weight and the water content calculated.

[3] = tested on: cultured bovine chondrocytes; test: NO2- release from cultured bovine chondrocytes (Greiss reaction); format: cell-based; conditions: for release of NO2-: endotoxin at 1 μg/ml, no constitutive release
[4] = tested on: surgically divided Achilles tendon; test: Rat Achilles tendon healing model with nitric oxide synthase inhibition (morphology, biomechanics); format: in vivo; conditions: for distance separating the cut ends of the healing tendon (5-8 mm): 1 mg/ml in drinking water
Protocol: as §1, §2
(a) 1 week D-NAME (n=9) vs L-NAME (n=11); walking speed and biomechanical analyses at day 7. […]
The rats were housed in beta-chip-lined plastic cages, two animals per cage, with a 12-hour light, 12 hour dark cycle in an animal care facility and fed rat chow and water ad libitum. Anaesthesia was achieved by intraperitoneal injection of 80 mg/kg ketamine (Park Davis, Morris Plains, N.J.) and 5 mg/kg xylazine (Miles Inc, Shawnee Mission, Kans.). All surgical procedures were performed under sterile conditions with the aid of 2.5x microsurgical loops. The surgical procedure was similar to that previously outlined. A 3 cm midline incision was made over the right Achilles tendon and the Achilles tendon and plantaris were isolated from the surrounding fascia. The underlying fascia was disrupted by spreading with a pair of small straight scissors. The tendinous portion of the plantaris was removed and the Achilles tendon was divided cleanly in its mid-substance, 0.5 cm from its calcaneal insertion with a scalpel. The skin was then sutured with two simple nylon sutures of 5-0 ethilon monofilament nylon on a PC-1 cutting needle (Ethicon Inc, N.J.). No operation was performed on the left, uninjured, hind limb. No cast or dressings were applied and the animals were unrestricted during the healing phase. The animals were sacrificed by CO2 inhalation.
One hundred and fifty two harvested lower limbs were placed in phosphate buffered saline (PBS), frozen and stored at −70° C. for an average of seven days prior to testing. On the day prior to testing the specimens were thawed. All extraneous soft and hard tissues were removed by blunt and sharp dissection from the Achilles tendon, formerly intramuscular tendinous fibers and the hind foot. Area measurements of the uninjured and sham operated tendons were made with an area micrometer (Mitutoyo, Tokyo, Japan). Length measurements were made with a 0.02 mm calibrated caliper (Draper, Japan). The formerly intramuscular tendinous fibers were then secured between two strips of white labelling tape with Thick Gel Super Glue® (Super Glue Corporation, N.Y.) such that the distal edge of the tape was 1.0 cm from the calcaneal insertion. The calcaneus was fixed at 45° in an adjustable rubber-gripped clamp (Panavise, Sparks, Nev.). Throughout the procedure care was taken to ensure that neither the Super Glue® nor the self curing plastic contaminated the tendon proper and the specimens were kept moist by application of PBS. Mechanical testing was carried out using a MTS 810 material test system (MTS Systems Corporation, PN). Each specimen underwent a constant velocity ramp to failure test at 1 cm/sec (≈100%/sec). […]

[5] = Walking speed assessment in a confined walkway; format: in vivo, rat
Protocol: as §2
The animals were tested in a confined walkway with a dark shelter at the end. Each rat was held by its chest at the start of the walkway and then allowed to walk/run to the dark shelter at the end of the walkway. The time taken for the rat to cover the first half (21.5 cm) and the total length (43 cm) of the walkway was measured by individuals blinded to the treatment groups.

[6] = fed from the immediate post-operative period, day 15

Compound: COC(=O)[C@H](N)CCCN=C(N)N[N+](=O)[O-] [D-NAME, Nw-nitro-D-arginine methyl ester]
- systemic changes (palsies, coat, dyspnoea, death, post mortem lesions) [1]: failed to display any of the above changes
- increase of weight [2]: 30%

Compound: O=C(O)CN(CCOCCOCCN(CC(=O)O)CC(=O)O)CC(=O)O [EGTA]
- inhibition of endotoxin-induced NO2- production [3]: not inhibited

Compound: COC(=O)[C@@H](N)CCCNC(=N)N[N+](=O)[O-] [L-NAME, Nw-nitro-L-arginine methyl ester]
- distance separating the cut ends of the healing tendon (5-8 mm) [4]: did not change
- microscopic appearance of the healing tissue (light microscopy) ([4]; L-NAME versus D-NAME fed rats): no subjective differences
- failure load of uninjured Achilles tendon constructs ([4]; day 7): unaffected
- inhibition of cross-sectional area of healing Achilles tendon ([4]; day 7, given orally 1 mg/ml in drinking water from four days prior to surgery, p<0.01 vs D-NAME): 30%
- reduction in failure load on the formerly divided side ([4]; day 7, p<0.01): 24%
- inhibition of cross-sectional area of healing Achilles tendon ([4]; day 15, given orally from four days prior to surgery, p<0.001): 50%
- inhibition of cross-sectional area of healing Achilles tendon ([4]; day 22, given orally from four days prior to surgery, p<0.05): 17%
- failure load [4, 6]: failed to show any changes
- tendon cross-sectional area [4, 6]: failed to show any changes
- toe displacement, maximum displacement, stiffness, energy, modulus or maximum stress of surgically divided or uninjured Achilles constructs ([4]; rat, in vivo): did not affect
- rats that died ([1]; day 21, group of eight rats): Two
- post mortem examination findings ([1]; day 22, all rats): scant body fat, empty small intestines, myocardial lesions consistent with infarction and granular kidneys
- rats that developed severe dyspnoea ([1]; from day 15): ⅝
- coat and peri-orbital changes ([1]; from day 15, all rats): lost coat texture and developed peri-orbital rubor
- rats that developed motor palsies of upper or lower limbs ([1]; from day 15, group of eight rats): Four out of the eight
- body weight over the first 15 days of treatment ([2]; 1 mg/ml in drinking water): either failed to gain weight or lost weight
- lighter than initial preoperative weight ([2]; by day 22, p<0.001): 30%
- loss in dry muscle weight (right triceps) ([2]; day 22, p<0.01): 40%
- loss in wet muscle weight (right triceps) ([2]; day 22, p<0.01): 30%
- systemic change: weight [2, 6]: weight loss
- inhibition of endotoxin-induced NO2- production [3]: completely inhibited
- behavior and walking speed ([5]; after day 11): progressively quieter, slower
- systemic change: walking speed [5, 6]: loss of walking speed
- behavior or walking speed ([5]; first week of treatment): no changes

Compound: N=C(N)NCCC[C@H](N)C(=O)O [L-arginine]
- distance separating the cut ends of the healing tendon (5-8 mm) [4]: did not change
- systemic changes (palsies, coat, dyspnoea, death, post mortem lesions) [1]: failed to display any of the above changes
- effect on muscle weight ([2]; day 22): no effect
- increase of weight [2]: 30%

Compound: IL-1β: inflammatory mediator
- release of NO2- [3]: 100 nmol NO2^−/106 cells/24 hours

Compound: TNF-α
- release of NO2- [3]: 100 nmol NO2^−/106 cells/24 hours
